Here are results for 8 compounds from patent EP0342558A2, “2-amino-4,5-methyleneadipic acid compounds for treatment of CNS disorders” (priority 1988, dated 1989).

For orientation: Ki means a dissociation constant, usually derived from enzyme kinetics or from competition with a known ligand. High values mean a looser hold on the target, low ones a stronger hold on the target.

Marks after values point to notes of the source that are not given here.

For one series, the target named is Kainate. The experiment in a line: Glutamate binding assay, [³H]kainate binding to synaptic plasma membranes. The note with it: 0.5 nM [³H]kainate, SPM, 0-4°C, 60 minutes. As to the method: (§1) The purpose of this assay is to determine the binding affinity of a compound of Formula I for the three glutamic acid receptor sub-types. (NMDA, QUIS, Kainate). It is expected that a compound interacting with one of these sub-type receptors will mimic or antagonize the effect of the endogenous ligand and thereby have a memory enhancing effect or have a neuroprotective and/or anti-epileptic effects. This procedure was carried out as follows:
(§2) Synaptic plasma membranes (SPM) were prepared as previously described [Monahan, J.B. and Michel, J., "Identification and Characterization of an N-methyl-D-aspartate-specific L-[³H]glutamate Recognition Site in Synaptic Plasma Membranes, J. Neurochem., 48, 1699-1708 (1987)]. The SPM were stored at a concentration of 10-15 mg/ml in 0.32M sucrose, 0.5 mM EDTA, 1mM MgSO₄, 5 mM Tris/SO₄, pH 7.4, under liquid nitrogen. The identity and purity of the subcellular fractions were confirmed by both electron microscopy and marker enzymes. Protein concentrations were determined by using a modification of the method of Lowry [Ohnishi, S.T. and Barr, J.K., "A Simplified Method of Quantitating Proteins Using the Biuret and Phenol Reagents", Anal. Biochem., 86, 193-197 (1978)]. The SPM were treated identically for the [³H]AMPA (QUIS), [³H]kainate and NMDA-specific L-[³H]glumatate binding assays. The SPM were thawed at room temperature, diluted twenty-fold with 50mM Tris/-acetate, pH 7.4, incubated at 37°C for 30 minutes, and centrifuged at 100,000 g for 15 minutes. The dilution, incubation, and centrifugation was repeated a total of three times. The basic procedure for the receptor subclass binding assays was similar. This general method involved adding the radioligand (12.5 nM L-[³H]glutamate; 0.5 nM [³H]kainate or 10nM L-[³H]AMPA) to the appropriate concentration of the test compound and initiating the assay by the addition of ice cold SPM (0.2-0.45 mg). The binding assays were performed in 1.5 ml centrifuge tubes with the total volume adjusted to 1.0 ml. Additions of test compounds were made in 50 mM Tris/acetate, pH 7.4 and incubations were carried out at 0-4°C. The incubation time for the NMDA and the AMPA binding assays was 10 minutes and for the kainate binding assay 60 minutes. The AMPA binding assay contained 100 mM KSCN. […] The supernatant was aspirated and the pelleted membranes dissolved in Beckman Ready-Protein scintillation cocktail and the samples counted on a Beckman LS 5800 or 3801 liquid scintillation counter with automatic corrections for quenching and counting efficiency. […] Radioligand binding to the SPM was analyzed using Scatchard and Hill transformations and the Ki values of the compounds determined using logit-log transformations. […]

In the next series the test system is KA neurotoxicity. The experiment in a line: In vitro chick retina assay, protection against KA. Format: cell-based. The note with it: concentration required to completely prevent toxicity of KA (25 µM); 30 minutes at 37°C. From the text:
(§3) This assay is adapted from procedures described in literature sources [Olney, J.W., Price, M.T., Fuller, T.A., Labruyere, J., Samson, L., Carpenter, M., Mahan, K., "The Anti-Excitotoxic Effects of Certain Anesthetics, Analgesics and Sedative-Hypnotics", Neuroscience Letters, 68, 29-34, (1986)]. By an approach similar to that earlier described [Reif-Lehrer, L., Bergenthal, J. and Hanninen, L., "Effects of Monosodium Glutamate on Chick Embryo Retina in Culture", Invest. Ophthalmol., 14, 114-124, (1975)], 15-day-old chick embryos were decapitated and their eyes removed and cut into quadrants after excising the cornea and removing the lens, vitreous and iris. The retinal quadrants were then gently separated from the pigment epithelium and incubated for 30 minutes at 37°C in a standard balanced salt solution (BSS) to which test compounds, either excitatory amino acid agonists or potential antagonists or both, were added in various concentrations. As described elsewhere [Olney, J.W., Price, M.T., Samson, L. and Labruyere, J., "The Role of Specific Ions in Glutamate Neurotoxicity". Neurosci. Lett.. […] After incubation for 30 minutes, the retinal quadrants were fixed by immersion in phosphate-buffered solution containing 1.5% glutaraldehyde and 1% paraformaldehyde, then additionally fixed in 1% osmium tetroxide and embedded in araldite, allowing sections to be cut for either light or electron microscopy [Olney, J.W., "Glutamate-Induced Retinal Degeneration in Neonatal Mice. Electron Microscopy of the Acutely Evolving Lesion", J. Neuropathol. Exp. Neurol., 28, 455-474, (1969)]. […] Neurosci. […] For purposes of the present study, NMDA and KA were the agonists employed and numerous potential antagonists were tested at various concentrations for their ability to prevent NMDA or KA neurotoxicity. […] Internal controls on each experiment consisted of at least 6 specimens being incubated with agonist alone (NMDA 200 µM or KA 25 µM). […]

The subject of series [1] is rat brain synaptic membranes (SPM). Kind of series: [³H]TCP modulation assay. It counts as binding. The method, then:
The effect on [³H]TCP (1-[1-(2-thienyl)-cyclohexyl]piperidine) binding was measure in rat brain synaptic membranes (SPM) prepared as previously described (J.B. Monahan and J. Michel; J. Neurochem., 48, 1699-1708, (1987)). Prior to their use in the binding assay, frozen SPM were thawed, diluted twenty fold with 50 mM Tris/acetate, pH 7.4 containing 0.04% (v/v) Triton X-100, incubated for 30 min., at 37°C and centrifuged at 95,000 xspg for 15 min. The Triton X-100 treated SPM were washed with 5 mM Tris/HCl, pH 7.4 and centrifuged a total of six times. The compounds of the invention were incubated with SPM (0.2-0.4 mg protein) and 2 nM [³H]TCP in a total volume of 0.5 ml of 5 mM Tris/HCl buffer pH 7.4 at 25°C for 60 min. The samples were filtered through glass fiber filters (Schleicher & Schuell #32) which have been pretreated with 0.05% (v/v) polyethylenimine, washed with 2 ml of ice-cold 5 mM Tris/HCl buffer, and then counted on a Beckman LS 5800 liquid scintillation counter with automatic corrections for quenching and counting efficiency. Antagonist character was defined as the ability of the test compound to inhibit [³H]TCP binding in the presence of 1 µM L-glutamate, while agonist character is shown by stimulation of either basal [³H]TCP binding or the binding in the presence of 10 µM D-AP7, a specific competitive NMDA antagonist. Non specific binding was defined as the residual binding in the presence of 60 µM phencyclidine.

Another series has as its system QA. Kind of series: In vitro chick retina assay, protection against QA. It counts as cell-based. The note with it: 30 minutes at 37°C; QA concentration not given.
Another series deals with QUIS. Kind of series: Glutamate binding assay, [³H]AMPA (QUIS) binding to synaptic plasma membranes. The note with it: 10nM [³H]AMPA, 100 mM KSCN, SPM, 0-4°C, 10 minutes. The method, then:
as §1, §2

The next series has as its target NMDA. The experiment in a line: Glutamate binding assay, NMDA-specific L-[³H]glutamate binding to synaptic plasma membranes. The note with it: 12.5 nM L-[³H]glutamate, SPM, 0-4°C, 10 minutes. As to the method: as §1, §2
The subject of the next series is NMDA neurotoxicity. The experiment in a line: In vitro chick retina assay, protection against NMDA. It counts as cell-based. The conditions noted are these: for % protection vs NMDA: NMDA 200 µM; for Antagonist activity vs NMDA: concentration required to completely prevent toxicity of NMDA (200 µM), 30 minutes at 37°C.
Source text: as §3

The test system of series [2] is 15-day-old chick embryo retina. The conditions noted are these: agonist alone, 30 minutes, pilot experiments. From the text: This assay is adapted from procedures described in literature sources [Olney, J.W., Price, M.T., Fuller, T.A., Labruyere, J., Samson, L., Carpenter, M., Mahan, K., "The Anti-Excitotoxic Effects of Certain Anesthetics, Analgesics and Sedative-Hypnotics", Neuroscience Letters, 68, 29-34, (1986)]. By an approach similar to that earlier described [Reif-Lehrer, L., Bergenthal, J. and Hanninen, L., "Effects of Monosodium Glutamate on Chick Embryo Retina in Culture", Invest. Ophthalmol., 14, 114-124, (1975)], 15-day-old chick embryos were decapitated and their eyes removed and cut into quadrants after excising the cornea and removing the lens, vitreous and iris. The retinal quadrants were then gently separated from the pigment epithelium and incubated for 30 minutes at 37°C in a standard balanced salt solution (BSS) to which test compounds, either excitatory amino acid agonists or potential antagonists or both, were added in various concentrations. As described elsewhere [Olney, J.W., Price, M.T., Samson, L. and Labruyere, J., "The Role of Specific Ions in Glutamate Neurotoxicity". Neurosci. Lett.. […]

Series [3] relates to 15-day-old chick embryo retina. The conditions noted are these: 1 mM, incubated for 30 minutes in BSS, pilot studies; cited from earlier work.
Another series deals with mungbean seedling growth. The note with it: cited from earlier work.

Take `N[C@H](CC1CC1C(=O)O)C(=O)O` (stereo partly drawn) [cis-D-2-amino-4,5-methyleneadipic acid, Cis-D-2-amino-4,5-methyleneadipic acid]: the “Binding Ki KA” value at Kainate was 13.0 µM. Besides, the “Antagonist activity vs KA” value with KA neurotoxicity is on record as above 500 µM. Further, the “maximal stimulation of [³H]TCP binding” value in series [1] (compared with the full agonist glutamate) was “substantially less than that shown for the full agonist glutamate”. In addition, the “[³H]TCP Bound” value in series [1] (compound 100 µM, in presence of D-AP7 (10µM), control without compound 5016) is on record as 11453 DPM; in series [1] (compound 100 µM, in presence of L-Glutamate (1µM), control without compound 15466) it was 12265 DPM; in series [1] (compound 200 µM, in presence of D-AP7 (10µM), control without compound 5016), 11161 DPM; in series [1] (compound 200 µM, in presence of L-Glutamate (1µM), control without compound 15466) it was 11880 DPM; in [1] (compound 400 µM, in presence of D-AP7 (10µM), control without compound 5016) it was 9345 DPM; in [1] (compound 400 µM, in presence of L-Glutamate (1µM), control without compound 15466), 9622 DPM. In series [1] (in the presence of D-APH), the “effect on quantity of [³H]TCP bound” value is “agonist effect”. Moreover, the “effect on quantity of [³H]TCP specifically bound” value in series [1] (in the presence of L-glutamic acid) was “antagonist effect”. Moreover, in the series on QA, the “Antagonist activity vs QA” value is reported as above 500 µM. Also, the Ki was above 300 µM on QUIS and 1.9 µM at NMDA. In addition, the “% protection vs NMDA” value is recorded as 10(0%)* in the series with NMDA neurotoxicity (compound at 10 µM), 25(33%)* with NMDA neurotoxicity (compound at 25 µM), 50(66%)* with NMDA neurotoxicity (compound at 50 µM) and 100% in the series on NMDA neurotoxicity (compound at >75 µM). Further, the “Antagonist activity vs NMDA” value in the series with NMDA neurotoxicity was above 75 µM.

On to `CN[C@H](CC(=O)O)C(=O)O` [NMDA, N-methyl-D-aspartate], for which the “lowest concentrations required to consistently obtain fully developed retinal lesions” value in series [2] is 200 µM.

For the compound `N[C@H](CC1CC1C(=O)O)C(=O)O` (stereo partly drawn) [trans-D-2-amino-4,5-methyleneadipic acid, Trans-D-2-amino-4,5-methyleneadipic acid], the “Binding Ki KA” value on Kainate was found to be 25.0 µM. In addition, in the series with KA neurotoxicity, the “Antagonist activity vs KA” value is recorded as above 500 µM. In addition, the “Antagonist activity vs QA” value in the series with QA is above 500 µM. Further, the Ki on QUIS was above 300 µM; at NMDA, 2.2 µM. Besides, the results for the “% protection vs NMDA” value with NMDA neurotoxicity (compound at 50 µM), in the series with NMDA neurotoxicity (compound at 75 µM) and in the series on NMDA neurotoxicity (compound at >125 µM) were 50(0%)*, 75(66%)* and 100%, respectively. The “Antagonist activity vs NMDA” value in the series with NMDA neurotoxicity is above 125 µM.

With `N[C@@H](CC1CC1C(=O)O)C(=O)O` (stereo partly drawn) [cis-L-2-amino-4,5-methyleneadipic acid, Cis-L-2-amino-4,5-methyleneadipic acid], the “Binding Ki KA” value on Kainate stood at 23.0 µM. Besides, the “Antagonist activity vs KA” value in the series on KA neurotoxicity is above 500 µM. Moreover, in the series on QA, the “Antagonist activity vs QA” value is above 500 µM. The Ki was above 300 µM on QUIS and 14.2 µM at NMDA. Besides, in the series on NMDA neurotoxicity, the “Antagonist activity vs NMDA” value is recorded as above 500 µM.

Turning to `N[C@@H](CC1CC1C(=O)O)C(=O)O` (stereo partly drawn) [trans-L-2-amino-4,5-methyleneadipic acid, Trans-L-2-amino-4,5-methyleneadipic acid], on Kainate, the “Binding Ki KA” value was 37.0 µM. The “Antagonist activity vs KA” value in the series on KA neurotoxicity is recorded as above 500 µM. Moreover, the “Antagonist activity vs QA” value in the series with QA is reported as above 500 µM. For the same compound, the Ki was above 300 µM at QUIS and 2.5 µM at NMDA. Moreover, in the series with NMDA neurotoxicity, the “Antagonist activity vs NMDA” value is listed as above 500 µM.

With `N[C@@H](CCC(=O)O)C(=O)O` [Glu, Glutamate], the retinal lesion result in series [3] is “a fully developed lesion occurs”.

Consider `NC(C(=O)O)[C@@H]1C[C@@H]1C(=O)O` (relative stereo) [cis-α-(carboxycyclopropyl)glycine], for which the “inhibition of mungbean seedling growth” value with mungbean seedling growth is recorded as “potent inhibitor”.

In the case of `C=C(C)[C@H]1CN[C@H](C(=O)O)[C@H]1CC(=O)O` [KA, Kainate], the “lowest concentrations required to consistently obtain fully developed retinal lesions” value in series [2] is 25 µM.
